Data: US20230126310A1 (priority 2020, published 2023)
Where a name gives a salt, the structure may show the parent alone.

Test system: SARS-CoV-2
Assay: microbe, parasite or virus in culture
Conditions: Severe acute respiratory syndrome coronavirus 2, Caco-2, 48 h

Row | SMILES | IC50 [µM]
1 | O[C@@H](COc1cccc2ncccc12)CN1CCN([C@@H]2c3ccccc3[C@@H]3[C@H](c4ccccc42)C3(F)F)CC1 [LY335979 (Zosuquidar trihydrochloride), Zosuquidar trihydrochloride] | 26.8
2 | Cc1c(O)cccc1C(=O)N[C@@H](CSc1ccccc1)[C@H](O)CN1C[C@H]2CCCC[C@H]2C[C@H]1C(=O)NC(C)(C)C [Nelfinavir Mesylate] | 2.65
3 | C[C@]1(O)C[C@@H](c2nc(-c3ccc4ccc(-c5ccccc5)nc4c3)c3c(N)nccn32)C1 [OSI-906 (Linsitinib), Linsitinib] | 24.9
4 | COc1ccc(Cc2nccc3cc(OC)c(OC)cc23)cc1OC [PAPAVERINE HYDROCHLORIDE] | 0.95
5 | Nc1ccc2cc3ccc(N)cc3nc2c1 [PROFLAVINE HEMISULFATE] | 26.7

Same assay, conditions: Severe acute respiratory syndrome coronavirus 2, Caco-2, 48 h, read-out: % Inh. (% Inhibition of SARS-CoV-2)

Row | SMILES | inhibition at 10 µM [%]
6 | CCNC(=O)Nc1ccc(-c2nc3c(c(N4CCOC[C@@H]4C)n2)CCN(C2COC2)C3)cc1 [GDC-0349] | 83.8
7 | COc1ccc(NC(=O)c2ccc(-c3ccc(-c4noc(C)n4)cc3C)cc2)cc1N1CCN(C)CC1 [GR-127935] | 53.7
8 | CS(=O)(=O)CCNCc1nc(-c2ccc3ncnc(Nc4ccc(OCc5cccc(F)c5)c(Cl)c4)c3c2)cs1 [GW-583340] | 60.1
9 | C[C@]12CC[C@H](O)CC1=CC[C@@H]1[C@@H]2CC[C@]2(C)C(n3cnc4ccccc43)=CC[C@@H]12 [Galeterone (TOK-001), Galeterone] | 69
10 | CC1(C)S[C@@H]2[C@H](N3C(=O)[C@@H](c4ccccc4)NC3(C)C)C(=O)N2[C@H]1C(=O)O [HETACILLIN POTASSIUM] | 67.1
11 | Oc1c(Cl)cc(Cl)c(Cl)c1Cc1c(O)c(Cl)cc(Cl)c1Cl [HEXACHLOROPHENE] | 92.9
12 | CCOc1cc2ncc(C#N)c(Nc3ccc(OCc4cccc(F)c4)c(Cl)c3)c2cc1NC(=O)/C=C/CN(C)C [HKI-357] | 77.7
13 | CN1CCc2cc3c(cc2C1O)OCO3 (stereo not drawn) [HYDRASTININE HYDROCHLORIDE] | 56.3
14 | CCN(CC)CCNc1ccc(CO)c2sc3ccccc3c(=O)c12 [Hycanthone] | 60.2
15 | CC(C)Oc1ccc2c(=O)c(-c3ccccc3)coc2c1 [IPRIFLAVONE] | 51.4
16 | C#Cc1cccc(Nc2ncnc3cc4c(cc23)OCCOCCOCCO4)c1 [Icotinib] | 68.1
17 | C[C@@H](c1nc(-c2ccc(C#N)cc2)cs1)[C@](O)(Cn1cncn1)c1cc(F)ccc1F [Isavuconazole] | 92.8
18 | Clc1ccc(C(Cn2ccnc2)OCc2c(Cl)cccc2Cl)c(Cl)c1 (stereo not drawn) [Isoconazole nitrate (Travogen), Isoconazole nitrate] | 75.9
19 | Cc1ccc(C(=O)N(CCCN)[C@@H](c2nc3cc(Cl)ccc3c(=O)n2Cc2ccccc2)C(C)C)cc1 [Ispinesib (SB-715992), Ispinesib] | 91.9
20 | CN(C)C(=O)C(CCN1CCC(O)(c2ccc(Cl)cc2)CC1)(c1ccccc1)c1ccccc1 [LOPERAMIDE HYDROCHLORIDE] | 58.9
21 | O[C@@H](COc1cccc2ncccc12)CN1CCN([C@@H]2c3ccccc3[C@@H]3[C@H](c4ccccc42)C3(F)F)CC1 [LY335979 (Zosuquidar trihydrochloride), Zosuquidar trihydrochloride] | 93
22 | N#C/C(=C1/SCC(c2ccccc2Cl)S1)n1ccnc1 (stereo not drawn) [Lanoconazole] | 70.7
23 | O=C(NC1CCN(CCCCC2(C(=O)NCC(F)(F)F)c3ccccc3-c3ccccc32)CC1)c1ccccc1-c1ccc(C(F)(F)F)cc1 [Lomitapide] | 77.4
24 | CCNC(=O)c1noc(-c2cc(C(C)C)c(O)cc2O)c1-c1ccc(CN2CCOCC2)cc1 [Luminespib] | 104
25 | CN1C[C@H](CNC(=O)OCc2ccccc2)C[C@@H]2c3cccc4c3c(cn4C)C[C@H]21 [METERGOLINE] | 54.6
26 | CNC(=O)[C@@H](NC(=O)[C@H](CC(C)C)[C@H](O)C(=O)NO)C(C)(C)C [Marimastat] | 68.7
27 | CCc1cc2cc(OC)c(OC)cc2c(Cc2ccccc2)n1 [Moxaverine] | 68.7

Row | SMILES | inhibition at 10 µM [%]
28 | C/C(=N\NC(=S)NNC(=S)Nc1ccccc1Cl)c1ccccn1 [N-(2-chlorophenyl)-2-({(2E)-2-[1-(2-pyridinyl)ethylidene]hydrazino}carbothioyl)hydrazinecarbothioamide] | 101
29 | COc1ccccc1N1CCN(CC(O)COc2cccc3ccccc23)CC1 (stereo not drawn) [NAFTOPIDIL] | 90.6
30 | CCc1nn(CCCN2CCN(c3cccc(Cl)c3)CC2)c(=O)n1CCOc1ccccc1 [NEFAZODONE HYDROCHLORIDE] | 71.7
31 | NC(=O)N/N=C/c1ccc([N+](=O)[O-])o1 [NITROFURAZONE] | 87.3
32 | C[C@@]1(O)[C@H](O)[C@@H](CO)O[C@H]1n1ccc(N)nc1=O [NM107, 2′-C-methylcytidine, 2′-C-methylcytidine] | 60.1
33 | O=C(CC(c1ccccc1)c1ccccc1)N1CCN(C(c2ccccc2)c2ccccc2)CC1 [NP118809] | 60.8
34 | Cc1c(O)cccc1C(=O)N[C@@H](CSc1ccccc1)[C@H](O)CN1C[C@H]2CCCC[C@H]2C[C@H]1C(=O)NC(C)(C)C [Nelfinavir Mesylate] | 88.6
35 | COc1cccc2cc(-c3nc([C@H]4CC[C@H](C(=O)O)CC4)n4ncnc(N)c34)[nH]c12 [OSI-027] | 105
36 | C[C@]1(O)C[C@@H](c2nc(-c3ccc4ccc(-c5ccccc5)nc4c3)c3c(N)nccn32)C1 [OSI-906 (Linsitinib), Linsitinib] | 110
37 | O=C(Nc1ccc(OC(F)(F)F)cc1)c1sccc1NCc1ccnc2ccccc12 [OSI-930] | 100
38 | O=C(Nc1cc(Cl)cc(Cl)c1O)c1c(O)c(Cl)cc(Cl)c1Cl [OXYCLOZANIDE] | 94.4
39 | COC[C@H](NC(=O)c1cnc(C)s1)C(=O)N[C@@H](COC)C(=O)N[C@@H](Cc1ccccc1)C(=O)[C@@]1(C)CO1 [Oprozomib (ONX 0912), Oprozomib] | 52.7
40 | OCCOc1ccc(/C(=C(/CCCl)c2ccccc2)c2ccccc2)cc1 [Ospemifene] | 52.9
41 | C[C@H](/C=C/[C@H](C)C(C)(C)O)[C@H]1CC[C@H]2/C(=C/C=C3C[C@@H](O)C[C@H](O)C3)CCC[C@]12C [PARICALCITOL] | 86
42 | OC1(c2ccc(Cl)c(C(F)(F)F)c2)CCN(CCCC(c2ccc(F)cc2)c2ccc(F)cc2)CC1 [PENFLURIDOL] | 85.9
43 | N=C(N)c1ccc(OCCCCCOc2ccc(C(=N)N)cc2)cc1 [PENTAMIDINE ISETHIONATE] | 54.6
44 | C1CCC(C(CC2CCCCN2)C2CCCCC2)CC1 (stereo not drawn) [PERHEXILINE MALEATE] | 55.4
45 | O=c1[nH]c2ccccc2n1C1CCN(CCCC(c2ccc(F)cc2)c2ccc(F)cc2)CC1 [PIMOZIDE] | 94
46 | COc1cc2nc(N3CCN(C(=O)c4ccco4)CC3)nc(N)c2cc1OC [PRAZOSIN HYDROCHLORIDE] | 58
47 | CC(=O)OCC(=O)[C@@]1(O)CC[C@H]2[C@@H]3CCC4=CC(=O)C=C[C@]4(C)[C@H]3[C@@H](O)C[C@@]21C [PREDNISOLONE ACETATE] | 60
48 | Nc1ccc2cc3ccc(N)cc3nc2c1 [PROFLAVINE HEMISULFATE] | 95.8
49 | O=C1c2cccc3c2[C@H](CCC3)CN1[C@@H]1CN2CCC1CC2 [Palonosetron HCl] | 57.4

Row | SMILES | inhibition at 10 µM [%]
50 | CCOc1cc2ncc(C#N)c(Nc3ccc(F)c(Cl)c3)c2cc1NC(=O)/C=C/CN(C)C [Pelitinib (EKB-569), Pelitinib] | 83.4
51 | O=C(NC[C@H](O)CO)c1ccncc1Nc1ccc(I)cc1F [Pimasertib (AS-703026), Pimasertib] | 53.2
52 | C=C[C@H]1CN2CC[C@H]1C[C@H]2[C@H](OC(=O)OCC)c1ccnc2ccc(OC)cc12 [QUININE ETHYL CARBONATE] | 59.1
53 | O=C(NO)c1cnc(N2CCN(S(=O)(=O)c3ccc4ccccc4c3)CC2)nc1 [R306465] | 57.3
54 | COC(=O)[C@H]1[C@H]2C[C@@H]3c4[nH]c5cc(OC)ccc5c4CCN3C[C@H]2C[C@@H](OC(=O)c2cc(OC)c(OC)c(OC)c2)[C@@H]1OC [RESERPINE] | 67.8
55 | C=CCNc1c(O)cc2c(O)c1C[C@@H](C)C[C@H](OC)[C@H](O)[C@@H](C)/C=C(\C)[C@H](OC(N)=O)[C@@H](OC)/C=C\C=C(/C)C(=O)N2 [Retaspimycin (Hydrochloride)] | 74.7
56 | Cc1nc(Nc2ccc(F)cc2)nc(N2CCc3ccccc3C2C)c1C (stereo not drawn) [Revaprazan Hydrochloride] | 90.9
57 | C=CC(=O)Nc1cccc(Nc2nc(Nc3ccc(N4CCN(C(C)=O)CC4)cc3OC)ncc2C(F)(F)F)c1 [Rociletinib (CO-1686, AVL-301), Rociletinib] | 84.9
58 | O=C(O)c1ccccc1O [SALICYLIC ACID] | 71.3
59 | CO[C@H]1C[C@H](O[C@@H]2/C(C)=C/C[C@@H]3C[C@@H](C[C@]4(CC[C@H](C)[C@@H](C5CCCCC5)O4)O3)OC(=O)[C@@H]3C=C(C)/C(=N/O)[C@H]4OC/C(=C\C=C\[C@@H]2C)[C@]43O)O[C@@H](C)[C@@H]1O [SELAMECTIN] | 68.2
60 | COc1ccc(CCc2nc3cc(-c4c(C)noc4C)ccc3n2C[C@H](C)N2CCOCC2)cc1Cl [SGC-CBP30] | 59.2
61 | COc1ccc(CCCOC(Cn2ccnc2)c2ccc(OC)cc2)cc1 (stereo not drawn) [SKF-96365] | 70.3
62 | COC(=O)C1=C(C)NC(C)=C(C(=O)NCCCN2CCC(c3ccccc3)(c3ccccc3)CC2)C1c1ccc([N+](=O)[O-])cc1 (stereo not drawn) [SNAP-5089] | 72.6
63 | CC1(C)CC(=O)c2c(C(F)(F)F)nn(-c3ccc(C(N)=O)c(N[C@H]4CC[C@H](O)CC4)c3)c2C1 [SNX-2112] | 96.6
64 | O=C(O)CCCO [SODIUM OXYBATE] | 57.3
65 | NC(=O)NS(=O)(=O)c1ccc(N)cc1 [SULFACARBAMIDE] | 58.1
66 | Clc1ccc(C(Cn2ccnc2)OCc2csc3c(Cl)cccc23)c(Cl)c1 (stereo not drawn) [Sertaconazole nitrate] | 88.9
67 | CC(C)(O)CC(=O)NCCn1ccc2ncnc(Nc3ccc(Oc4cccc(C(F)(F)F)c4)c(Cl)c3)c21 [TAK-285] | 73
68 | COc1cc(C(=O)NC2CCN(C)CC2)c(F)cc1Nc1ncc2c(n1)N(C1CCCC1)CC(F)(F)C(=O)N2C [TAK-960] | 91.6
69 | Cn1cnc2c1c(=O)[nH]c(=O)n2C [THEOBROMINE] | 52.4
70 | Clc1ccc(C(Cn2ccnc2)OCc2ccsc2Cl)c(Cl)c1 (stereo not drawn) [TIOCONAZOLE] | 50.6

Same assay, conditions: Severe acute respiratory syndrome coronavirus 2, Caco-2, 48 h, read-out: pIC50 (converted)

Row | SMILES | IC50 [µM]
71 | O[C@@H](COc1cccc2ncccc12)CN1CCN([C@@H]2c3ccccc3[C@@H]3[C@H](c4ccccc42)C3(F)F)CC1 [LY335979 (Zosuquidar trihydrochloride), Zosuquidar trihydrochloride] | 26.9
72 | Cc1c(O)cccc1C(=O)N[C@@H](CSc1ccccc1)[C@H](O)CN1C[C@H]2CCCC[C@H]2C[C@H]1C(=O)NC(C)(C)C [Nelfinavir Mesylate] | 2.63
73 | C[C@]1(O)C[C@@H](c2nc(-c3ccc4ccc(-c5ccccc5)nc4c3)c3c(N)nccn32)C1 [OSI-906 (Linsitinib), Linsitinib] | 25.1
74 | COc1ccc(Cc2nccc3cc(OC)c(OC)cc23)cc1OC [PAPAVERINE HYDROCHLORIDE] | 0.955
75 | Nc1ccc2cc3ccc(N)cc3nc2c1 [PROFLAVINE HEMISULFATE] | 26.9
